Measured values: patent publication US20220332876A1, “HYDROPHILIC-HYDROPHOBIC COPOLYMER CARRYING SHORT CHAIN FATTY ACID ESTER” (UNIVERSITY OF TSUKUBA, priority 2019, published 2022)

Legend:
[1] = Antidiabetic test (glucose resistance test, pancreatic histology); type: in vivo, C57BL/6J mice; conditions: for size of the islets of Langerhans: H & E stained pancreatic tissue; for glucose concentration in glucose resistance test: glucose 2 g/kg orally, [glucose]60 min−[glucose]0 min, compared with the diabetic model mice
Method: (§1) Seven 7 to 8-week-old C57BL/6J mice (male) per group were obtained from Charles River Japan, Inc (Yokohama). These mice were bred while being freely fed with a standard solid feed at controlled temperature (23±1° C.) and humidity (50±5%) in a controlled temperature (23±1° C.) and humidity (50±5%) under non-pathogenic conditions in 12 hours dark/light cycles. The mice were randomly divided into the following administration groups of GP1 to GP6, and allowed to freely drink each sample described until Day 36. One day later, a glucose resistance test was performed. In the test, the body weight and sample consumption for each mouse were monitored every day. The sample was then replaced with drinking water until the end of the test (Day 40).
(2) The glucose resistance test was performed to evaluate the therapeutic effects of short chain fatty acids in controlling the metabolism of the administered glucose. Sixteen (16) hours after overnight constraint, glucose (2 g/kg) was orally administered to the mice. One hour before and after the glucose administration, 10 μL of blood was collected from the tail vein, and mixed with heparin-containing (50 units/mL) saline in a volume (v:v) ratio of 1:1. A glucose concentration in the diluted blood was measured by FUJI DRY-CHEM 7000V (FUJIFILM Corporation). A final blood glucose concentration was calculated by the following equation:
Final glucose concentration (mg/mL)=[glucose]60 min−[glucose]0 min
(§2) The organs of the mice taken out after dissection were fixed by immediately putting them in a 10% neutral formalin solution and immersing them therein for 1 day. Thereafter, the solution was replaced with a 70% ethanol solution for paraffin embedding. In accordance with a routine method, all the organs after the paraffin embedding were processed into tissue sections with a thickness of 5 μm, which were hematoxylin/eosin (HE) stained by a routine method. The tissue sections were dehydrated with high-concentration alcohol, washed with xylene, then fixed, and subjected to microscope examination (biorevo, BZ-9000, Keyence). A region of the islets of Langerhans was determined by ImageJ software (NIH). The results are illustrated in FIG. 30. […] The t-test is the same as described above.

[2] = mouse, in vivo
Method: as §1
These organs were stored in a 10% neutral buffer for further histological analysis. The Student's t-test is the same as described above.
as §2, with “All” for “In accordance with a routine method, all”, “alcohol and” for “alcohol,”, “followed by” for “then fixed, and subjected to”, “villus length” for “region of the islets of Langerhans”, “measured” for “determined”, “(NIH).” for “(NIH). The results are illustrated in FIG. 30.”

[3] = test system: melanoma B16F10 cells; assay: Effect 2 as radiation enhancer (melanoma xenograft model); type: in vivo, C57BL/6J mice; conditions: for tumor weight / tumor size at the end of the test: Day 6 after irradiation
Method: (§3) Five or seven 5 to 7-week-old C57BL/6J mice per group obtained similarly as in the above test were bred under similar conditions. 0.076×10^6 melanoma B16F10 cells per 100 μL (serum free DMEM) were injected subcutaneously into the outer side of the right thigh of each of the mice (Day 9 before irradiation). When the cancer volume reached from 350 to 560 mm^3, the mice were randomly divided into the following administration groups. The irradiation conditions were set to 10 Gy, 150 kV, 20 mA, Al+Cu (0.5 mm+0.1 mm) filtration, and 330 mm intervals.
The cancer volume was calculated in the same manner as described above.
GP4: Butyric acid (i.p.; 250 mg/kg) (6 hours before irradiation)+IR group (n=7)
GP5: Butyric acid (i.p.; 500 mg/kg) (24 hours before irradiation)+IR group (n=7)
GP6: BNP (i.p.: 500 mg/kg) (6 hours before irradiation)+IR group (n=7)
GP7: BNP (i.p.: 500 mg/kg) (12 hours before irradiation)+IR group (n=7)
(1) The data on cancer proliferation profiles by 5 Gy irradiation after butyric acid and NP administration in a melanoma xenograft model is illustrated in FIG. 33.
(2) The data on the cancer weight at the end of the test (Day 6 after irradiation) is illustrated in FIG. 32 as mean±SEM values (n=from 2 to 7). The t-test is the same as in Test 8 (5).

[4] = Body weight in radiation enhancer Test Example 10; type: in vivo, C57BL/6J mice
Method: as §3, with “When the cancer volume reached from 350 to 560 mm^3, the mice were randomly divided into the following administration groups.” left out
(3) The data on body weight changes in the mice as mean SD values (n=7) are illustrated in FIG. 35. The t-test is the same as described above.

[5] = Pharmacokinetic study (2): phenylbutyric acid monomer in plasma and liver by LC/MS; type: in vivo, ICR mice; conditions: 200 mg/kg (1.22 mmol-4PBA/kg); blood and liver
Method: Forty-five (45) 7-week-old ICR mice (male) were randomly divided into the following three groups. Doses for the administration groups 2GP and 3GP were determined so that the amount of phenylbutyric acid contained therein reached 200 mg/kg (1.22 mmol-4PBA/kg). After each sample is administered nearly simultaneously to all the mice, 1 mL of blood is taken by cardiac puncture, according to each endpoint (7 endpoints of 30 min, 1 h, 2 h, 4 h, 12 h, 16 h, 24 h), to separate plasma. The target organ, liver, was also taken out from each of the mice, and content of the phenyl butyric acid monomer was quantified by high performance liquid chromatography/mass spectrometry (LC/MS). The measurement results are illustrated in FIG. 43. In these figures, PBA was totally metabolized within 4 hours, whereas 4-Ph-BNP persistently released the phenylbutyric acid monomer in the blood and in the liver, and the release was not terminated even after 24 hours.
1GP: Saline (control, 3 mice) 2GP: 4-Phenylbutyric acid (7 endpoints (30 min, 1 h, 2 h, 4 h, 12 h, 16 h, and 24 h)×3 mice) 3GP: Ph-BNP (7 endpoints (30 min, 1 h, 2 h, 4 h, 12 h, 16 h, and 24 h)×3 mice)

Molecule	size of the islets of Langerhans [1]	glucose concentration in glucose resistance test [1]	villus length in the duodenum, jejunum, ileum, and large intestine [2]	tumor proliferation suppressive effect (order of groups) ([3]; i.p. 6 hours before 5 Gy irradiation)	tumor weight / tumor size at the end of the test ([3]; i.p. 6 hours before irradiation)	tumor proliferation suppressive effect (order of groups) ([3]; i.p. 24 hours before 5 Gy irradiation)	tumor weight / tumor size at the end of the test ([3]; i.p. 24 hours before irradiation)	body weight change / toxicity ([4]; i.p. before irradiation)	body weight change / toxicity ([4]; mouse, in vivo, ip)	time until totally metabolized [5] [h]
CCCC(=O)O [butyric acid]	reduced	no significant differences	same trend	irradiation group <butyric acid (6 hours before) administration group	significantly reduced	BNP (6 hours before) administration group=butyric acid (24 hours before) administration group	significantly reduced	body weight decrease is found		
CH3O—(CH2CH2O)m—CH2PhCH2[CH2CH(OC(═O)CH2CH2CH3)]nS(═S)OCH2CH3 [N721]			did not have a shortened villus length or damage to the digestive tract						does not have a body weight decrease	
CCC(=O)O [propionic acid]	reduced	no significant differences	same trend							
O=C(O)CCCc1ccccc1 [4-phenylbutyric acid]										≤ 4
